From patent US20260109707A1, “HETEROBIFUNCTIONAL COMPOUNDS AND METHODS OF TREATING DISEASE” (Halda Therapeutics OpCo. Inc., priority 2022, published 2026)
Read-outs that look alike come from different tables or passages of the source.

Assays:
[1] = system: T-Rex 293 cell line SC3 cells having increased expression of androgen receptor protein due to exposure to doxycycline; test: Cellular growth inhibition assay, T-Rex 293 SC3 cells with doxycycline (CellTiter-Glo, 72 hours); assay type: cell-based; conditions: T-Rex 293 SC3 cells with increased androgen receptor expression due to doxycycline (10 ng/mL)
Summary of the method: (§1)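 Growth inhibition is measured in an inducible AR-expressing T-Rex 293 clone, SC3, cultured with or without 10 ng/mL doxycycline in hormone-depleted medium. Test compounds are applied for 72 hours. GI50 values derive from CellTiter-Glo 2.0 signal fitted by four-parameter regression.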

[2] = system: T-Rex 293 cell line SC3 cells lacking increased expression of androgen receptor protein; test: Cellular growth inhibition assay, T-Rex 293 SC3 cells without doxycycline (CellTiter-Glo, 72 hours); assay type: cell-based; conditions: T-Rex 293 cell line SC3 cells not exposed to doxycycline (lacking increased androgen receptor expression)
Summary of the method: as §1

VCaP cells = test: Cellular growth inhibition assay for VCaP cells (CellTiter-Glo, 72 hours); assay type: cell-based, human
Summary of the method: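 Luminescent viability signal after 72 h of compound exposure gave GI50 values by four-parameter nonlinear regression. Compounds were added in 0.5% DMSO to cells plated 24 h earlier at 5000/well in DMEM containing 10% FBS.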

T47D cells = test: Cellular growth inhibition assay for T47D cells (CellTiter-Glo, 72 hours); assay type: cell-based, human; conditions: 72 hours treatment
Protocol: T47D cells were purchased from American Type Cell Culture (ATCC Cat #HTB-133) and then seeded on poly-D-lysine coated, black clear-bottom 384-well plates at 3000/well in 25 μL Dulbecco's Modified Eagle Medium (DMEM) supplemented with 10% w/w Fetal bovine serum (FBS), 0.2 units/mL recombinant human insulin (Gibco Cat #12585014), and 1% w/w Pen-Strep. Pen-Strep is a commercially available mixture of penicillin G and streptomycin, which is used in mammalian cell culture media to prevent bacterial contamination. Dulbecco's Modified Eagle Medium (DMEM) supplemented with 10% w/w fetal bovine serum (FBS), 0.2 units/mL recombinant human insulin, and 1% w/w Pen-Strep is herein referred to as Treatment Medium. Following seeding of cells in the plates, the plates were spun at 300×g for 30 seconds, then equilibrated to room temperature for 30 minutes, and then deposited in a humidified tissue culture incubator maintained at 37° C. with 5% CO2.
At 24 hours after seeding of the cells, dilutions of test compound were prepared in DMSO and dissolved in Treatment Medium, to achieve a final DMSO concentration of 0.5% w/w, thereby providing the Test Compound Solution. A 25 μL aliquot of the Test Compound Solution was added to cells in the well plates. An equal volume of a solution containing DMSO and Treatment Medium was used as a negative control. Following treatment of cells with Test Compound Solution or said equal volume of a solution containing DMSO and Treatment Medium, the plates were spun at 300×g for 30 seconds, and then left in an incubator for 72 hours.
At the end of the treatment duration, cell viability was quantified with CellTiter-Glo 2.0 reagent (Promega Cat #G9243). For this purpose, plates were equilibrated to room temperature for 30 minutes, and then 25 μL of CellTiter-Glo 2.0 reagent was added to cells in the plate wells. Plates were then agitated on a shaker for two minutes at 500 rpm and subsequently incubated at room temperature for 10 minutes. Following incubation, the plates were spun at 3000×g for 30 seconds, then sealed with an optical adhesive cover, and luminescence readings were measured with an EnVision Plate Reader (Perkin Elmer).
Data was normalized using zero luminescence for baseline. A four-parameter non-linear regression curve fit was applied to dose-response data in GraphPad Prism data analysis software to determine the half-maximal growth inhibitory concentration (GI50) for each test compound.

GI50 (VCaP cells; Homo sapiens, VCaP, 72 h) | GI50 (T47D cells; Homo sapiens, T47D, 72 h) | GI50 (T47D cells) | GI50 (VCaP cells) | Compound | GI50 ([1]; 72 h) | GI50 ([2]; 72 h) | GI50 [2] | GI50 [1]
500 to 1500 nM | 500 to 1500 nM |  |  | CCNC(=O)C[C@@H]1N=C(c2ccc(N(C)CCC3CCN(c4ccc(C(=O)N[C@H]5CC[C@H](Oc6ccc(C#N)c(Cl)c6)CC5)nn4)CC3)cc2)c2c(sc(C)c2C)-n2c(C)nnc21 [I-34] | < 500 nM | 500 to 1500 nM |  | 
< 500 nM | 500 to 1500 nM |  |  | CCNC(=O)C[C@@H]1N=C(c2ccc(N(C)CCN3CCN(c4ccc(C(=O)N[C@H]5CC[C@H](Oc6ccc(C#N)c(Cl)c6)CC5)nn4)CC3)cc2)c2c(sc(C)c2C)-n2c(C)nnc21 [I-35] | < 500 nM | 500 to 1500 nM |  | 
< 500 nM | < 500 nM |  |  | CCNC(=O)C[C@@H]1N=C(c2ccc(OC3CC(OC4CCN(c5ccc(C(=O)N[C@H]6CC[C@H](Oc7ccc(C#N)c(Cl)c7)CC6)nn5)CC4)C3)cc2)c2c(sc(C)c2C)-n2c(C)nnc21 (stereo partly shown) [I-37] | < 500 nM | < 500 nM |  | 
< 500 nM | 500 to 1500 nM |  |  | CCNC(=O)C[C@@H]1N=C(c2ccc(N3CCC(N(C)C4CCN(c5ccc(C(=O)N[C@H]6CC[C@H](Oc7ccc(C#N)c(Cl)c7)CC6)nn5)CC4)CC3)cc2)c2c(sc(C)c2C)-n2c(C)nnc21 [I-43] | < 500 nM | 1500 to 3000 nM |  | 
500 to 1500 nM | 500 to 1500 nM |  |  | CCNC(=O)C[C@@H]1N=C(c2ccc(OC3CN(c4ccc(C(=O)N[C@H]5CC[C@H](Oc6ccc(C#N)c(Cl)c6)CC5)nn4)C3)cc2)c2c(sc(C)c2C)-n2c(C)nnc21 [I-47] | < 500 nM | 500 to 1500 nM |  | 
< 500 nM | < 500 nM |  |  | Cc1sc2c(c1C)C(c1ccc(CCC3CCN(c4ccc(C(=O)NC5CCC(Oc6ccc(C#N)c(Cl)c6)CC5)nn4)CC3)cc1)=N[C@@H](Cc1ncco1)c1nnc(C)n1-2 (stereo partly drawn) [I-74, N-[4-(3-chloro-4-cyano-phenoxy)cyclohexyl]-6-[4-[2-[4-[(9S)-4,5,13-trimethyl-9-(oxazol-2-ylmethyl)-3-thia-1,8,11,12-tetrazatricyclo[8.3.0.02,6]trideca-2(6),4,7,10,12-pentaen-7-yl]phenyl]ethyl]-1-piperidyl]pyridazine-3-carboxamide] | < 500 nM | < 500 nM |  | 
< 500 nM | < 500 nM |  |  | Cc1sc2c(c1C)C(c1ccc(CCCC3CCN(c4ccc(C(=O)N[C@H]5CC[C@H](Oc6ccc(C#N)c(Cl)c6)CC5)nn4)CC3)cc1)=NC(Cc1ncco1)c1nnc(C)n1-2 (stereo partly shown) [I-75] | < 500 nM | < 500 nM |  | 
< 500 nM | < 500 nM |  |  | Cc1sc2c(c1C)C(c1ccc(OCCC3CCN(c4ccc(C(=O)N[C@H]5CC[C@H](Oc6ccc(C#N)c(Cl)c6)CC5)nn4)CC3)cc1)=NC(Cc1ncco1)c1nnc(C)n1-2 (stereo partly shown) [I-78] | < 500 nM | < 500 nM |  | 
< 500 nM | < 500 nM |  |  | Cc1sc2c(c1C)C(c1ccc(OC3CC4(CCN(c5ccc(C(=O)N[C@H]6CC[C@H](Oc7ccc(C#N)c(Cl)c7)CC6)nn5)CC4)C3)cc1)=N[C@@H](Cc1ncco1)c1nnc(C)n1-2 [I-79] | < 500 nM | < 500 nM |  | 
< 500 nM | < 500 nM |  |  | Cc1sc2c(c1C)C(c1ccc(OC3CN(CC4CCN(c5ccc(C(=O)N[C@H]6CC[C@H](Oc7ccc(C#N)c(Cl)c7)CC6)nn5)CC4)C3)cc1)=N[C@H](Cc1ncco1)c1nnc(C)n1-2 [I-82] | < 500 nM | < 500 nM |  | 
< 500 nM | < 500 nM |  |  | Cc1sc2c(c1C)C(c1ccc(OC3CC4(CCN(c5ncc(C(=O)N[C@H]6CC[C@H](Oc7ccc(C#N)c(Cl)c7)CC6)cn5)CC4)C3)cc1)=N[C@@H](Cc1ncco1)c1nnc(C)n1-2 [I-84] | < 500 nM | < 500 nM |  | 
 |  | < 500 nM | < 500 nM | Cc1sc2c(c1C)C(c1ccc(OC3CN(CC4CCN(c5ccc(C(=O)N[C@H]6CC[C@H](Oc7ccc(C#N)c(Cl)c7)CC6)nn5)CC4)C3)cc1)=N[C@@H](Cc1ncco1)c1nnc(C)n1-2 [I-87] |  |  | < 500 nM | < 500 nM
< 500 nM | < 500 nM |  |  | Cc1sc2c(c1C)C(c1ccc(OC3CC4(CCN(c5ccc(C(=O)N[C@H]6CC[C@H](Oc7ccc(C#N)c(Cl)c7)CC6)cn5)CC4)C3)cc1)=N[C@@H](Cc1ncco1)c1nnc(C)n1-2 [I-88] | < 500 nM | < 500 nM |  | 
< 500 nM | < 500 nM |  |  | Cc1sc2c(c1C)C(c1ccc(OC3CC4(CCN(c5ccc(C(=O)N[C@H]6CC[C@H](Oc7ccc(C#N)c(Cl)c7)CC6)nc5)CC4)C3)cc1)=N[C@@H](Cc1ncco1)c1nnc(C)n1-2 [I-89] | < 500 nM | < 500 nM |  | 

More lines, now with the values behind:

Compound | GI50 (VCaP cells; Homo sapiens, VCaP, 72 h) | GI50 (T47D cells; Homo sapiens, T47D, 72 h) | GI50 (T47D cells) | GI50 (VCaP cells) | GI50 ([1]; 72 h) | GI50 ([2]; 72 h) | GI50 [2] | GI50 [1]
CCNC(=O)C[C@@H]1N=C(c2ccc(N3CCC(CN4CCN(c5ccc(C(=O)N[C@H]6CC[C@H](Oc7ccc(C#N)c(Cl)c7)CC6)nn5)CC4)CC3)cc2)c2c(sc(C)c2C)-n2c(C)nnc21 [I-36] | < 500 nM | 500 to 1500 nM |  |  | < 500 nM | 500 to 1500 nM |  | 
CCNC(=O)C[C@@H]1N=C(c2ccc(CN3CCN(c4ccc(C(=O)N[C@H]5CC[C@H](Oc6ccc(C#N)c(Cl)c6)CC5)nn4)CC3)cc2)c2c(sc(C)c2C)-n2c(C)nnc21 [I-38] | < 500 nM | 500 to 1500 nM |  |  | < 500 nM | 500 to 1500 nM |  | 
CCNC(=O)C[C@@H]1N=C(c2ccc(N3CC(N4CCN(c5ccc(C(=O)N[C@H]6CC[C@H](Oc7ccc(C#N)c(Cl)c7)CC6)nn5)CC4)C3)cc2)c2c(sc(C)c2C)-n2c(C)nnc21 [I-40] | < 500 nM | 500 to 1500 nM |  |  | < 500 nM | 500 to 1500 nM |  | 
CCNC(=O)C[C@@H]1N=C(c2ccc(N3CCN(C4CN(c5ccc(C(=O)N[C@H]6CC[C@H](Oc7ccc(C#N)c(Cl)c7)CC6)nn5)C4)CC3)cc2)c2c(sc(C)c2C)-n2c(C)nnc21 [I-41] | < 500 nM | < 500 nM |  |  | < 500 nM | 500 to 1500 nM |  | 
CCNC(=O)C[C@@H]1N=C(c2ccc(OCCN(C)c3ccc(C(=O)N[C@H]4CC[C@H](Oc5ccc(C#N)c(Cl)c5)CC4)nn3)cc2)c2c(sc(C)c2C)-n2c(C)nnc21 [I-49] | < 500 nM | 500 to 1500 nM |  |  | < 500 nM | 500 to 1500 nM |  | 
Cc1sc2c(c1C)C(c1ccc(OC3CC4(CCN(c5ccc(C(=O)N[C@H]6CC[C@H](Oc7ccc(C#N)c(Cl)c7)CC6)nn5)CC4)C3)cc1)=NC(Cc1ncco1)c1nnc(C)n1-2 (stereo partly shown) [I-77] | < 500 nM | 1500 to 3000 nM |  |  | < 500 nM | 500 to 1500 nM |  | 
Cc1sc2c(c1C)C(c1ccc(OC3CC4(CCN(c5ccc(C(=O)N[C@H]6CC[C@H](Oc7ccc(C#N)c(Cl)c7)CC6)nn5)CC4)C3)cc1)=N[C@H](Cc1ncco1)c1nnc(C)n1-2 [I-80] | < 500 nM | > 3000 nM |  |  | < 500 nM | > 3000 nM |  | 
Cc1sc2c(c1C)C(c1ccc(OC3CN(CC4CCN(c5ccc(C(=O)N[C@H]6CC[C@H](Oc7ccc(C#N)c(Cl)c7)CC6)nn5)CC4)C3)cc1)=N[C@@H](Cc1ncco1)c1nnc(C)n1-2 [I-81] | < 500 nM |  | > 3000 nM |  | < 500 nM |  | > 3000 nM | 
Cc1sc2c(c1C)C(c1ccc(OC3CC4(CCN(c5ccc(C(=O)N[C@H]6CC[C@H](Oc7ccc(C#N)c(Cl)c7)CC6)nn5)CC4)C3)cc1)=N[C@@H](CC#N)c1nnc(C)n1-2 [I-83] | < 500 nM | < 500 nM |  |  | < 500 nM | > 3000 nM |  | 
Cc1sc2c(c1C)C(c1ccc(OC3CCC4(C3)CN(c3ccc(C(=O)N[C@H]5CC[C@H](Oc6ccc(C#N)c(Cl)c6)CC5)nn3)C4)cc1)=N[C@@H](Cc1ncco1)c1nnc(C)n1-2 (stereo partly shown) [I-85] | < 500 nM | < 500 nM |  |  | < 500 nM | < 500 nM |  | 
Cc1sc2c(c1C)C(c1ccc(O[C@H]3C[C@H](OC4CCN(c5ccc(C(=O)N[C@H]6CC[C@H](Oc7ccc(C#N)c(Cl)c7)CC6)nn5)CC4)C3)cc1)=N[C@@H](Cc1ncco1)c1nnc(C)n1-2 [I-90] | < 500 nM | < 500 nM |  |  | < 500 nM | < 500 nM |  | 
